Key:
[1] = system: aorta rings; test: Vessel-relaxing action in vitro (aorta rings, phenylephrine contraction); conditions: Oryctolagus cuniculus, concentration required to reduce phenylephrine-induced contraction of rabbit aorta rings by 50%
Method: B-1. Vessel-relaxing Action in vitro
Rabbits are stunned with a blow on the back of the neck and exsanguinated. The aorta is removed, freed from adhering tissue, separated into rings with a width of 1.5 mm, and placed individually, with preloading, in 5-ml organ baths with carbogen-gassed Krebs-Henseleit solution at 37° C. with the following composition (mM in each case): sodium chloride: 119; potassium chloride: 4.8; calcium chloride dihydrate: 1; magnesium sulphate heptahydrate: 1.4; potassium dihydrogen phosphate: 1.2; sodium hydrogen carbonate: 25; glucose: 10. The contraction force is recorded with Statham UC2 cells, amplified and digitized via an A/D converter (DAS-1802 HC, Keithley Instruments Munich) and recorded in parallel on a continuous-line recorder. To produce contraction, phenylephrine is added to the bath cumulatively in increasing concentration. After several control cycles, the test substance is added in increasing dosage in each subsequent pass and the level of contraction is compared with the level of contraction reached in the immediately preceding pass. This is used for calculating the concentration that is required to reduce the level of the control value by 50% (IC50 value). The standard application volume is 5 μl, and the proportion of DMSO in the bath solution corresponds to 0.1%.

[2] = target: T1, human phosphodiesterase 5 (PDE-5) (Homo sapiens, UniProt O76074); test: Inhibition of human phosphodiesterase 5 (PDE-5), SPA assay; assay type: biochemical; conditions: PDE-5 preparation from human platelets, [8-3H]cGMP substrate
T1 construct: PDE-5 preparations are obtained from human platelets by lysis; from tissue; host or cells: human platelets
Outline: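 PDE-5 partially purified from human platelets by Mono Q chromatography, diluted so under 70% of [8-3H]cGMP (0.025 μCi) converted. Compounds at 4 μM to 0.0018 μM final, Tris-HCl pH 7.5 with MgCl2, 60 min at room temperature. Yttrium SPA beads stop reaction; IC50 from concentration–inhibition plots.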

[3] = target: T2, recombinant guanylate cyclase reporter cell line (Rattus norvegicus, UniProt P19686+P20595); test: Action on recombinant guanylate cyclase reporter cell line; assay type: cell-based
T2 construct: expressed in transfected cells
T2 sequence (P20595 1-619): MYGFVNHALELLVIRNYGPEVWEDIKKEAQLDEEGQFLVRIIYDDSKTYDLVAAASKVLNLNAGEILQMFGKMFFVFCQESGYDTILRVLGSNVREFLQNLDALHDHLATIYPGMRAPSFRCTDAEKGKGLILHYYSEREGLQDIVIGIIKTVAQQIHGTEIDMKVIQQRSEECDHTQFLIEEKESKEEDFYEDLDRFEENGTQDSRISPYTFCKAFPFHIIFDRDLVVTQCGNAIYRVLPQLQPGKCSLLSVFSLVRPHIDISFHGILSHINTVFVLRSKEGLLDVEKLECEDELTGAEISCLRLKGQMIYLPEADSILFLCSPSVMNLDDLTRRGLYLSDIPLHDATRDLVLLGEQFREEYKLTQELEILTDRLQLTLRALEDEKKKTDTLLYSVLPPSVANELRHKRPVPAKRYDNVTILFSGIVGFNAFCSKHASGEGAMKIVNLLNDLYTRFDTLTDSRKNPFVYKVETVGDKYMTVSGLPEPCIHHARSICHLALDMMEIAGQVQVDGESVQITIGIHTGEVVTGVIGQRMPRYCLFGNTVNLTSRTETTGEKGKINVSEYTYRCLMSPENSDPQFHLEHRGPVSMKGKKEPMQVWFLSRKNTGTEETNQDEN
T2 sequence (P19686 1-690): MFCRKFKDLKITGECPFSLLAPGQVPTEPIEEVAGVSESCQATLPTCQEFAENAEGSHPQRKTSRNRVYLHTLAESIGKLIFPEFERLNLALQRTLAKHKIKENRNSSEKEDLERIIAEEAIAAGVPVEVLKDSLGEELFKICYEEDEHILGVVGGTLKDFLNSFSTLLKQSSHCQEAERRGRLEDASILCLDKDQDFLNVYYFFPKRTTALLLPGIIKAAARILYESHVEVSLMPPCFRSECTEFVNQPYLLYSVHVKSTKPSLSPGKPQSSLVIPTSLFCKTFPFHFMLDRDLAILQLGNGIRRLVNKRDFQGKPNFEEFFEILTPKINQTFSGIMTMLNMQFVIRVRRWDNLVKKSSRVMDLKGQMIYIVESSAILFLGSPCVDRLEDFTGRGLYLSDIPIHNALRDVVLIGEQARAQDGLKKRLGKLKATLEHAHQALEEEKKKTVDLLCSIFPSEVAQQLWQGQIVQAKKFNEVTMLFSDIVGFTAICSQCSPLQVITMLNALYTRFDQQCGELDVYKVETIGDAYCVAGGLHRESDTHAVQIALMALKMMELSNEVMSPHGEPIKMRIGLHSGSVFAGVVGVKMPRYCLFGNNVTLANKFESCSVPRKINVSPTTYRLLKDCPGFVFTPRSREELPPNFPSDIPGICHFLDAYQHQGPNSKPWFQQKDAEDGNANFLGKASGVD
Method: B-2. Action on Recombinant Guanylate Cyclase Reporter Cell Line
The cellular action of the compounds according to the invention is determined on a recombinant guanylate cyclase reporter cell line, as described in F. Wunder et al., Anal. Biochem. 339, 104-112 (2005).

Row | SMILES | IC50 [1] [nM] | IC50 [2] [nM] | MEC (minimal effective concentration) [3] [μm]
1 | CC1(C)C(=O)Nc2nc(-c3nn(Cc4ccccc4F)c4ncccc34)nc(-n3cc(O)cn3)c21 [Example 26, 2-[1-(2-Fluorobenzyl)-1H-pyrazolo[3,4-b]pyridin-3-yl]-4-(4-hydroxy-1H-pyrazol-1-yl)-5,5-dimethyl-5,7-dihydro-6H-pyrrolo[2,3-d]pyrimidin-6-one] | 674 | 12 | 0.03
2 | CC1(C)C(=O)Nc2nc(-c3nn(Cc4ccccc4F)c4ncccc34)nc(Oc3cn[nH]c3)c21 [Example 27, 2-[1-(2-Fluorobenzyl)-1H-pyrazolo[3,4-b]pyridin-3-yl]-5,5-dimethyl-4-(1H-pyrazol-4-yloxy)-5,7-dihydro-6H-pyrrolo[2,3-d]pyrimidin-6-one] | 1470 | 4 | 0.1
3 | CC(O)c1ccn(-c2nc(-c3nn(Cc4ccccc4F)c4ncccc34)nc3c2C(C)(C)C(=O)N3)n1 (stereo not drawn) [Example 28, 2-[1-(2-Fluorobenzyl)-1H-pyrazolo[3,4-b]pyridin-3-yl]-4-[3-(1-hydroxyethyl)-1H-pyrazol-1-yl]-5,5-dimethyl-5,7-dihydro-6H-pyrrolo[2,3-d]pyrimidin-6-one] | 98 | 110 | 0.3
4 | CC1(C)C(=O)Nc2nc(-c3nn(Cc4ccccc4F)c4ncccc34)nc(-n3cc(C(F)(F)F)cn3)c21 [Example 29, 2-[1-(2-Fluorobenzyl)-1H-pyrazolo[3,4-b]pyridin-3-yl]-5,5-dimethyl-4-[4-(trifluoromethyl)-1H-pyrazol-1-yl]-5,7-dihydro-6H-pyrrolo[2,3-d]pyrimidin-6-one] | 11400 | > 4000 | 1.0
5 | CC1(C)C(=O)Nc2nc(-c3nn(Cc4ccccc4F)c4ncccc34)nc(-n3ccc(C(F)(F)F)n3)c21 [Example 30, 2-[1-(2-Fluorobenzyl)-1H-pyrazolo[3,4-b]pyridin-3-yl]-5,5-dimethyl-4-[3-(trifluoromethyl)-1H-pyrazol-1-yl]-5,7-dihydro-6H-pyrrolo[2,3-d]pyrimidin-6-one] | > 10000 | > 4000 | 1.0
6 | CC1(C)C(=O)Nc2nc(-n3nc(Cc4ccccc4F)c4cc(F)ccc43)nc(O)c21 [Example 31, 2-[5-Fluoro-3-(2-fluorobenzyl)-1H-indazol-1-yl]-4-hydroxy-5,5-dimethyl-5,7-dihydro-6H-pyrrolo[2,3-d]pyrimidin-6-one] | 142 | 500 | 0.01
7 | CC1(C)C(=O)Nc2nc(-c3nn(Cc4ccccc4F)c4ncccc34)nc(N3CCOC(C(F)(F)F)C3)c21 (stereo not drawn) [Example 32, 2-[1-(2-Fluorobenzyl)-1H-pyrazolo[3,4-b]pyridin-3-yl]-5,5-dimethyl-4-[2-(trifluoromethyl)morpholin-4-yl]-5,7-dihydro-6H-pyrrolo[2,3-d]pyrimidin-6-one] | 9160 | 720 | 1.0
8 | CC1(C)C(=O)Nc2nc(-c3nn(Cc4ccccc4F)c4ncccc34)nc(N3CCC(C(F)(F)F)C3)c21 (stereo not drawn) [Example 33, 2-[1-(2-Fluorobenzyl)-1H-pyrazolo[3,4-b]pyridin-3-yl]-5,5-dimethyl-4-[3-(trifluoromethyl)pyrrolidin-1-yl]-5,7-dihydro-6H-pyrrolo[2,3-d]pyrimidin-6-one] | 696 | 570 | 0.3
9 | CC1(C)C(=O)Nc2nc(-n3nc(Cc4ccccc4F)c4cc(F)ccc43)nc(OCCC(F)(F)F)c21 [Example 34, 2-[5-Fluoro-3-(2-fluorobenzyl)-1H-indazol-1-yl]-5,5-dimethyl-4-(3,3,3-trifluoropropoxy)-5,7-dihydro-6H-pyrrolo[2,3-d]pyrimidin-6-one] | 6150 | 550 | 1.0
10 | CC1(C)C(=O)Nc2nc(-n3nc(Cc4ccccc4F)c4ccccc43)nc(NCCC(F)(F)F)c21 [Example 35, 2-[3-(2-Fluorobenzyl)-1H-indazol-1-yl]-5,5-dimethyl-4-[(3,3,3-trifluoropropyl)amino]-5,7-dihydro-6H-pyrrolo[2,3-d]pyrimidin-6-one] | > 10000 | 110 | 0.3

Second part, the compound after the results:

Row | IC50 [1] [nM] | IC50 [2] [nM] | MEC (minimal effective concentration) [3] [μm] | SMILES
11 | 5490 | 89 | 0.3 | CC1(C)C(=O)Nc2nc(-n3nc(Cc4ccccc4F)c4ccccc43)nc(NCC3CC3)c21 [Example 36]
12 | 3870 | 100 | 0.3 | CC1(C)C(=O)Nc2nc(-n3nc(Cc4ccccc4F)c4cc(F)ccc43)nc(NCCC(F)(F)F)c21 [Example 37]
13 | 10000 | 41 | 0.3 | CC1(C)C(=O)Nc2nc(-n3nc(Cc4ccccc4F)c4cc(F)ccc43)nc(NCC3CC3)c21 [Example 38]
14 | 618 | 88 | 0.1 | CC1(C)C(=O)Nc2nc(-c3nc(Cc4ccccc4F)c4ncccn34)nc(NCCC(F)(F)F)c21 [Example 39, 2-[8-(2-Fluorobenzyl)imidazo[1,5-a]pyrimidin-6-yl]-5,5-dimethyl-4-[(3,3,3-trifluoropropyl)amino]-5,7-dihydro-6H-pyrrolo[2,3-d]pyrimidin-6-one]
15 | 1670 | 150 | 0.1 | C[C@@H](Nc1nc(-c2nn(Cc3ccccc3F)c3ncc(F)cc23)nc2c1C(C)(C)C(=O)N2)C1CC1 [Example 88, 4-{[(1R)-1-Cyclopropylethyl]amino}-2-[5-fluoro-1-(2-fluorobenzyl)-1H-pyrazolo[3,4-b]pyridin-3-yl]-5,5-dimethyl-5,7-dihydro-6H-pyrrolo[2,3-d]pyrimidin-6-one]
16 | 3880 | 82 | 0.03 | C[C@H](Nc1nc(-c2nn(Cc3ccccc3F)c3ncc(F)cc23)nc2c1C(C)(C)C(=O)N2)C1CC1 [Example 89, 4-{[(1S)-1-Cyclopropylethyl]amino}-2-[5-fluoro-1-(2-fluorobenzyl)-1H-pyrazolo[3,4-b]pyridin-3-yl]-5,5-dimethyl-5,7-dihydro-6H-pyrrolo[2,3-d]pyrimidin-6-one]
17 | 3070 | 230 | 0.3 | Cc1nc2c(cc1F)c(-c1nc(NCCC(F)(F)F)c3c(n1)NC(=O)C3(C)C)nn2Cc1ccccc1F [Example 90, 2-[5-Fluoro-1-(2-fluorobenzyl)-6-methyl-1H-pyrazolo[3,4-b]pyridin-3-yl]-5,5-dimethyl-4-[(3,3,3-trifluoropropyl)amino]-5,7-dihydro-6H-pyrrolo[2,3-d]pyrimidin-6-one]

— patent US8859569B2, “Substituted annellated pyrimidines and use thereof” (Bayer Pharma Aktiengesellschaft, priority 2011, dated 2014)
